Experiments:
[1] = test system: high-grade serous ovarian carcinoma (OV) patient-derived organoids; experiment: ATP-based viability assay in patient-derived organoids, OV; type: cell-based; conditions: Homo sapiens, OV PDOs, read-out: IC50, organoid viability
Protocol: (§1) Organoid culture was performed according to previously established protocols. Briefly, we procured patient-derived tissue samples provided and technically manipulated by Accurate International Biotechnology Co., Ltd. Subsequently, these samples were subjected to mechanical and enzymatic dissociation to disaggregate the tissue into single cells or small clusters, while preserving cellular integrity. Following this initial step, the isolated cells or tissue fragments were embedded within a 3D ECM scaffold, such as Matrigel or collagen. The ECM scaffold served as a supportive substrate, promoting cellular self-organization and mimicking native tissue architecture. Additionally, a precisely formulated cocktail of growth factors, cytokines, and signaling molecules tailored to the specific tissue of interest was meticulously formulated and added to the culture medium to facilitate organoid growth and maintenance.

SiHa cells = experiment: Transwell invasion assay in SiHa cells; type: cell-based, human; conditions: pretreated 20 μM 36 h, 12 h
Protocol: The Transwell chamber was assembled by coating the porous membrane insert in the top compartment with Matrigel to form a layer of extracellular matrix (ECM), and the top compartment was placed into a cell culture plate. NAT10^± SiHa cells and SiHa cells treated with DMSO, Remodelin or NP1192 for 36 h were collected and resuspended in serum-free medium at a density of 10,000 cells/200 μL of medium. Then, the cell suspension was added to the top compartment of the Transwell chamber, and the plate was placed in the incubator for 12 h. After incubation, the cells on the bottom surface of the membrane were fixed and stained. The cells were visualized under a microscope, and the number of cells that migrated through the membrane was determined via ImageJ software.

NAT10 = biological target: T1, NAT10 (Mus musculus, UniProt Q8K224); experiment: NAT10 degradation in U14 cells, Western blot; type: cell-based; conditions: murine U14 cervical cells, same treatment (20 μM), 36 h
T1 construct: nearly 70% reduction in the NAT10 protein content in murine U14 cervical cells after 36 h; endogenous in cells; host or cells: U14 (murine cervical carcinoma cell line, RRID:CVCL_9U56)
T1 sequence (Q8K224 1-1024): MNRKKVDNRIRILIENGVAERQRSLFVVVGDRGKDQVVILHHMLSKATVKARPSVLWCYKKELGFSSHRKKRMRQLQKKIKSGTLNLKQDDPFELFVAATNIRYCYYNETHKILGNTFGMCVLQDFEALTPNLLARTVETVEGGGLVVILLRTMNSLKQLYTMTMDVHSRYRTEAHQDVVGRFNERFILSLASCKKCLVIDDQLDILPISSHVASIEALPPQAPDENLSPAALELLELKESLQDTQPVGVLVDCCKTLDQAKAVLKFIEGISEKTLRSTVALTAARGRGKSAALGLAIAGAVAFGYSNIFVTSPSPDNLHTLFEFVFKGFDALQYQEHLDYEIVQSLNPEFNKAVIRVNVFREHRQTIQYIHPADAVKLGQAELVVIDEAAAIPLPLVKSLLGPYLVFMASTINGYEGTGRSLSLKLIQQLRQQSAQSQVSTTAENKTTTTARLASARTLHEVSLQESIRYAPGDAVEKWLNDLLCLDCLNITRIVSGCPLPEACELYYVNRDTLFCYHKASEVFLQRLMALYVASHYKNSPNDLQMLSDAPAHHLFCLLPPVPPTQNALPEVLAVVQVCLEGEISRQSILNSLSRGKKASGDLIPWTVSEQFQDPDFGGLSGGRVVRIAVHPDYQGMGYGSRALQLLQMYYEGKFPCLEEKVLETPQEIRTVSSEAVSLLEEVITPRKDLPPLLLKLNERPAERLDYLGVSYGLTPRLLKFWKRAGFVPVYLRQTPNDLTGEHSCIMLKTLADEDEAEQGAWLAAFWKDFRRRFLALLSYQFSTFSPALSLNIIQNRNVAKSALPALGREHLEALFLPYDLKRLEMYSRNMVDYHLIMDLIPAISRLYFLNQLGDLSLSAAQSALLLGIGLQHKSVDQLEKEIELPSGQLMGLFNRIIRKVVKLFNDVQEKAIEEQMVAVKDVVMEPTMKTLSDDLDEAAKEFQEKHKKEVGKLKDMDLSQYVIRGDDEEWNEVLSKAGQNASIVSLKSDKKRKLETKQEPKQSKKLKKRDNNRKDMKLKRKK
Protocol: The human CCa cell line SiHa and the normal epithelial foreskin fibroblast line HFF-1 were purchased from the Cell Bank of the Chinese Academy of Sciences. Additionally, murine cervical carcinoma cell line U14 (RRID:CVCL_9U56) was purchased from Boster Company. HFF-1 and U14 cells were cultured in Dulbecco’s modified Eagle’s medium (DMEM) (Gibco, USA) supplemented with 10% heat-inactivated fetal bovine serum (FBS; Gibco, USA), while SiHa cells were incubated in RPMI 1640 medium (Gibco, USA) in a humid atmosphere with 5% CO2 at 37 °C. For hypoxia exposure, the cells were incubated in a sealed culture tank containing 5% CO2 and 0.1% O2 (MGC, Japan) for 36 h.
RIPA lysis buffer (Beyotime, China) mixed with 1% protease inhibitor (Sigma, US) was added to the cells, and a sample of total protein was obtained and then loaded onto an 8% or 12% polyacrylamide gel. The gel was placed in a buffer solution, and an electric current was applied. The separated proteins were subsequently transferred from the gel onto a PVDF membrane. Next, the membrane was blocked with 5% milk for 1 h to prevent nonspecific antibody binding. […] The target proteins were detected via chemiluminescence with a ChemiDoc MP Imaging System (Bio-Rad, US).

[2] = test system: CD8+ TILs, M2 macrophages, MDSCs and Treg cells in U14 xenograft tumors; conditions: Figure 7A
Protocol: U14 cells (1 × 10^7 cells per mouse, approximately 100–150 μL of cell suspension) were implanted subcutaneously into the lateral lower dorsal surface of each mouse. The tumors were allowed to grow for 7 days, and the mice were then administered one of five treatments (group 1: U14 cells + DMSO; group 2: U14 cells + Remodelin; group 3: U14 cells + anti-PD-L1 antibody; group 4: U14 cells + NP1192; group 5: U14 cells + anti-PD-L1 antibody + NP1192). Each group of mice was assigned according to the principles of randomization and the blinding method. Tumors were measured every 2 days, and tumor volume was calculated via the following equation: volume = (width)^2 × length/2. Remodelin and NP1192 were injected into the peritumoral area every 2 days at a dose of 25 mg/kg, and the in vivo antimouse PD-L1 antibody (low endotoxin) was injected every 3 days at a dose of 2.5 mg/kg.
After the mice were euthanized, the tumor and peritumoral tissues were analyzed with an immunoflow kit (BioLegend, USA). The antibodies used for immunoflow cytometry included antihuman/mouse antibodies specific for CD11b-BV711, F4/80-AF647, CD206-PE, CD86-BV605, CD4-CD4-FITC IL-17-17-CY7/CY7, CD25-PE, FOXP3-AF647, CD4-BV605, CD45-PE/CY7, CD11b-BV711 and LY-6G/LY-6C-BV421 (BioLegend catalog no. 321239, RRID:AB_2860843). All data analyses were performed via GraphPad Prism 9, and the data are presented as the mean ± SEMs.

normal organoids = experiment: Normal organoids exposed to NP1192; type: cell-based, human; conditions: following NP1192 exposure
Protocol: as §1

U14 cells = experiment: Lactic acid, ATP and 2-NBDG uptake assays in U14 cells; type: cell-based, murine; conditions: U14, 20 μM, 36 h
Protocol: SiHa and U14 cells (2 × 10^5 cells per well) were plated in 6-well plates and cultured in RPMI 1640 medium or DMEM supplemented with 10% FBS and 1% penicillin–streptomycin. After cell adherence, 20 μM NP1192 or DMSO was added and incubated for 36 h, and the assays were performed according to the instruction manuals for the Lactate Assay Kit (Nanjing Jiancheng, China), ATP Assay Kit (Beyotime, China), and 2-NBDG reagent (GlpBio, US). All data analyses were performed via GraphPad Prism 9, and the data are presented as the means ± SEMs.

In the case of `N#Cc1ccc(-c2csc(N(CCCCCCC(=O)N3CCN(c4cccc5c4C(=O)N(C4CCC(=O)NC4=O)C5=O)CC3)N=C3CCCC3)n2)cc1` (centres unmarked) [NP1192], the IC50 [1] is reported as 9.95 µM, the cell invasion (SiHa cells) is reported as “substantially hindered CCa cell invasion” and the “reduction in NAT10 protein content” value (NAT10) is reported as ~70%. For the same molecule, the Treg gate ([2]; CD4+CD25+FOXP3+) was 0.00%, the “M2 (M2 macrophages gate)” value ([2]; CD11b+F4/80+CD206+) was 8.10% and the MDSC gate ([2]; CD11b+LY-6G+) was 4.96%. For the same molecule, the “CD8+ (CD8+ TILs gate)” value ([2]; tumors after treatment) was 4.30%, the “architecture and cellular integrity of normal organoids” value (normal organoids) was “remained unaltered” and the lactate levels (U14 cells) was “significantly decreased lactate levels”. For the same molecule, the “level of ATP production” value (U14 cells) was “increased markedly” and the “absorbtion rate (glucose analog 2-NBDG)” value (U14 cells; Figure 4L, DMSO 9.57) was 0.80.
